Legend:
[1] = system: Charles River male albino mice; experiment: PBQ Writhing Assay (analgesic activity); type: in vivo; details: for ED50: Mus musculus, po, read-out: PBQ WRITHING ASSAY (ED50 (mpk)) I.G.; for PBQ WRITHING ASSAY I.G. (Active / *): intragastric; for PBQ WRITHING ASSAY I.G. (Active / *) / PBQ WRITHING ASSAY S.C. (Active / *): initial screening dose 30 mg per kilogram, 30 min before PBQ i.p., writhes counted for ten minutes; for PBQ WRITHING ASSAY S.C. (Active / *): subcutaneous
Source text: The Writhing Assay is one of the most widely-used experimental procedures for measuring the analgesic activity of different narcotic and nonnarcotic analgesic agents, and involves the continuous, chemically-induced pain of visceral origin to an animal, such as a mouse or rat. [Gyires et al., Arch. int. Pharmacodyn, 267, 131-140 (1984); […] al., Fed. Proc., 15, 494 (1956); Koster et al., Fed. Proc., 18, 412 (1959); and Witken et al., J. Pharmacol. exp. Ther., 133, 400-408 (1961).] Chemicals which may be used to induce this pain include phenylbenzoquinone (PBQ) and acetic acid. As a result of the chemical irritation to the animal, a characteristic stretching and writhing of the animal (dorsiflexion of the animal's back, extension of its hindlimbs and the strong contraction of its abdominal musculature) will generally occur. […] Drugs which reduce the number of writhes of the animal appear to restore the normal nociceptive threshold of the animal. Charles River male albino mice, weighing 20 to 30 grams were used in this assay. Thirty minutes after subcutaneous or intragastric administration to ten mice of 30 mg per kilogram of body weight of a compound of the present invention ("test compound"), […] per 10 g of body weight of a 0.025% w/v solution of PBQ was injected intraperitoneally into each mouse. Ten mice which were given saline in place of a test compound of the invention were used as a control group. Five minutes later, each mouse was individually placed into a glass beaker for observation, and the number of writhes occurring during the following ten-minute period was counted. A test compound was considered to have produced analgesia in a mouse if, in accordance with the conditions set forth above, and under the test criteria employed for this assay, after the administration of 30 mg per kilogram of body weight of a compound of the present invention to the mouse, the number of writhes elicited by a mouse injected with PBQ was equal to, or less than, one-half the median number of writhes recorded for the saline-treated control group of mice that day, as described by Taber in "Predictive Value of Analgesic Assays in Mice and Rats," Advances in Biochemical Psychopharmacology, 8, 191 (1974). The standard initial screening dose of a test compound employed in this assay was […] for both routes of administration. If this initial screening dose of the test compound produced analgesia in seven of ten mice, then the effect of additional doses of the test compound on the writhing response was evaluated, and then the ED50 dose was generally calculated. (The slopes of the dose-response curves for all test compounds analyzed were compared as described by Tallarida and Murray, Manual of Pharmacologic Calculations, Page 11 (Springer Verlag, New York, 1981)).

[2] = system: prostaglandin E2-induced contractions of segments of guinea pig ileum; experiment: Prostaglandin (PGE) Antagonism Assay in guinea pig ileum; type: cell-based; parameters: key to PGE ANTAGONISM IN GUINEA PIG ILEUM (Active): Active: A concentration of test compound was determined to be "active" if it produced a dose ratio significantly greater than that obtained in a series of blank treatments; details: for Kb: Cavia porcellus, read-out: PGE ANTAGONISM IN GUINEA PIG ILEUM (pA2) (converted); for PGE ANTAGONISM IN GUINEA PIG ILEUM (Active): initial concentration of test compound, dose ratio of EC50 dose values versus blank treatments
Procedure: In order to determine the effectiveness of several of the compounds of the present invention ("test compounds") as prostaglandin E2 antagonists, a prostaglandin antagonism assay was conducted, as described below, to determine the ability of these compounds to inhibit prostaglandin E2-induced contractions of segments of guinea pig ileum.
Male albino guinea pigs weighing 200 to 500 grams were sacrificed by cervical dislocation.
The ileums were then quickly removed from the guinea pigs and placed in a modified Tyrode solution, a solution which is known to those of skill in the art, containing one-half of the usual amount of magnesium ions.
Segments of ileum about 2 cm long were then cut and mounted in a 10-mL tissue bath containing the modified Tyrode solution. The solution was maintained at 37°C and aerated with a gaseous mixture of 95% oxygen and 5% carbon dioxide.
Submaximal contractions of the ileum segments were then generated by injecting prostaglandin E2 into the bath, and detected isotonically. Data for a control prostaglandin E2 dose response curve plotting concentration of prostaglandin E2 versus number of contractions generated was then obtained by experimentally adjusting the dose of the prostaglandin E2 being injected into the tissue bath, in a manner known by those of skill in the art.
Solutions or suspensions containing an initial amount of a test compound in modified Tyrode solution ("test solutions/ suspensions") were then separately substituted for the tissue bath. Each test solution/suspension was then kept in constant contact with the ileum tissue, except for brief periods to drain the bath in preparation for rinsing with fresh test solution/suspension. Different doses of prostaglandin E2 were again injected into the test solutions/suspensions.
A second prostaglandin E2 dose response curve was then generated for prostaglandin E2 in the presence of a test compound.
A dose ratio of EC50 dose values was then calculated from the results of each test in a manner known by those of skill in the art. […] Duplicate tests were conducted on each concentration of test compound.
If the initial concentration of a test compound was determined to be "active," then varying concentrations of the test compound were then assayed. As is shown in Table I below, all test compounds analyzed in this assay were determined to be "active" as prostaglandin E2 antagonists at the initial concentration.
The pA2 value (a statistical constant which is a common measure of expressing the potency of a particular drug as a competitive antagonist) was then calculated for each test compound by schild plot calculations, as described by H. O. Schild, "pA, A New Scale for the Measurement of Drug Antagonism," Br. J. Pharmacol, 2, 189 (1947), according to the following mathematical formula: pA2 = -log[Test Compound] to quantitate the effectiveness of the test compounds as prostaglandin E2 antagonists.

Row | Molecule | ED50 ([1]; intragastric administration) [mg/kg] | PBQ WRITHING ASSAY I.G. (Active / *) [1] | PBQ WRITHING ASSAY S.C. (Active / *) [1] | Kb ([2]; Schild plot calculation) [µM] | PGE ANTAGONISM IN GUINEA PIG ILEUM (Active) [2] | PBQ WRITHING ASSAY (ED50 (mpk)) I.G. ([1]; intragastric administration) [mpk] | PBQ WRITHING ASSAY (ED50 (mpk)) S.C. ([1]; subcutaneous administration) [mpk] | PGE ANTAGONISM IN GUINEA PIG ILEUM (pA2) ([2]; Schild plot calculation)
1 | O=C(CCc1ccccn1)NNC(=O)N1Cc2ccccc2Oc2ccc(Cl)cc21 [Example 6, 8-chlorodibenz[b,f][1,4]oxazepine-10(11H)-carboxylic acid, 2-[1-oxo-3-(2-pyridinyl)propyl]hydrazide] | 8.6 | Active | Active | 2.51 | Active |  |  | 
2 | O=C(CCCc1cccs1)NNC(=O)N1Cc2ccccc2Oc2ccc(Cl)cc21 [Example 9, 8-chlorodibenz[b,f][1,4]oxazepine-10(11H)-carboxylic acid, 2-[1-oxo-4-(2-thienyl)butyl]hydrazide] | 6.8 | Active | Active | 0.0251 | Active |  |  | 
3 | 8-chlorodibenz[b,f][1,4]oxazepine-10(11H)-carboxylic acid, 2-[1-oxo-3-(4-pyridinyl)propyl]hydrazide, monohydrochloride [Example 26] |  | Active | Active |  | Active | 6.8 | 6.3 | 6.5
